We go through one compound from patent US12053465B2, “KCC2 expression enhancing compounds and uses thereof” (Whitehead Institute for Biomedical Research, priority 2017, dated 2024).

“Also recorded” adds a separate entry of the source.

For one assay, the system named is KCC2 expression. Put plainly: Western blot of KCC2 in cultured human RTT neurons. It is filed as cell-based. The note with it: Western blot; for KCC2 expression: cultured human RTT neurons. Summed up:
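Cultured neurons lysed in RIPA buffer (pH 7.6) with sonication; immunoblotted on PVDF with KCC2 antibody (1:2000) overnight at 4° C., HRP secondary.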
(In western blotting, separated proteins are transferred to a membrane and probed.)

Assay [1] has as its system mouse models of autism and depression. The settings on record: intraperitoneal (IP) injection; previous work (59, 60); cited from earlier work.
Assay [2] concerns Mecp2 mutant mice. Put plainly: Plethysmograph breathing measurement in Mecp2 mutant mouse model of RTT. The note with it: male Mecp2 mutant mice; daily injection, two weeks; vs DMSO- or EtOH-injected control. It is filed as in vivo. The protocol: (§1) We assessed the in vivo efficacy of KEECs by treating RTT disease-related symptoms such as breathing pauses and reduced locomotion (58) in a Mecp2 mutant mouse model of RTT. […] Plethysmograph and locomotion measurements were made in 4-6 week-old male Mecp2 mutant animals as a pre-treatment control time point and were then injected daily with KEECs KW-2449 or Piperine. Injection of the solvent DMSO or ethanol (EtOH) served as vehicle controls (FIG. 15A). The same two behavioral measurements in vehicle or KEEC-injected Mecp2 mutant animals were performed again two weeks after the start of daily injections. Each animal's ‘after injection’ data were compared to the ‘before injection’ level to assess behavioral changes.
Male Mecp2 mutant mice (Mecp2^−/y, e.g. the Bird model) between 4-12 weeks of age were used for the in vivo experiments. Subjects were divided into drug treated KO (Piperine/KW-2449), and vehicle treated KO (EtOH/DMSO) groups. Animals were randomly assigned to treatment arms with approximately equivalent numbers in each group. […]
A full body plethysmograph chamber (EMKA Inc, PA) was used to measure breathing patterns. […] For each test, the subject was left in the chamber for 20 minutes, afterwards its breath pattern was recorded for the next 20 minutes, and the estimated amplitude modulation index (eAMI) was calculated from the breath trace to label breath pauses automatically. […]

Assay [3] concerns Mecp2 mutant mice. As to the kind of experiment: Locomotion (infrared beam break) in Mecp2 mutant mouse model of RTT. It is filed as in vivo. As to the method: as §1
Male Mecp2 mutant mice (Mecp2^−/y, e.g. the Bird model) between 4-12 weeks of age were used for the in vivo experiments. Subjects were divided into drug treated KO (Piperine/KW-2449), and vehicle treated KO (EtOH/DMSO) groups. Animals were randomly assigned to treatment arms with approximately equivalent numbers in each group.
KW-2449 stock solution was prepared at 10 mg/ml with DMSO, and Piperine stock solution at 30 mg/ml with EtOH. 20 μl of stock solution were diluted with 1 ml saline for injection. Daily drug treatments or sham injections were performed on both groups between P28 and P56, for at least two weeks, as Mecp2 mutant mice start to show symptoms around P28 and die around P60. Both following tests were performed on both groups of mice before the injections start, and repeated at the end of the injection period. The animals' performance was then compared before and after drug/vehicle injections.
To measure the subjects' nighttime locomotion, a 1-D infrared light-beam frame (ActiMot, TSE-systems, MO) was used. Animals were single-housed in new cages with the same setup as their home cages. The infrared monitor was set up for each cage and the beam crossings was recorded between 17:00 and 9:00 the next morning, where the lights were turned off between 19:00 and 7:00. The average beam crossing frequency during the night (21:00-5:00) was used as the subject's activity score, and the average beam crossing frequency after lights on (7:00-9:00) was used as the subject's day time activity score. The time periods where the mouse is stationary for >5 minutes are discarded to reduce artifact caused by the mouse sleeping. As we look at both day-time and night-time locomotion, a bonferroni correction with repeated comparison number of 2 was applied. All behavioral analyses were performed by experimenters who were blind to the treatment condition.

The subject of assay [4] is KCC2 expression (KCC2-2A-luciferase reporter). As to the kind of experiment: KCC2-2A-luciferase reporter compound screening with RTT KCC2 reporter neurons. It is filed as cell-based, human. The note with it: MECP2-null RTT human KCC2 reporter neurons; LINCS, SMART, ICCB libraries; Luc/CTG normalized to in-plate DMSO; hit = B score >3. The method in brief:
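MECP2-null RTT human neurons carrying a KCC2-2A-luciferase reporter, differentiated 4 weeks, were treated with library compounds at 10 μM for 1–2 weeks at 37 °C. Lysate luciferase was normalized to CellTiter-Glo ATP per well and expressed as fold change over in-plate DMSO. Hits were called at B score >3.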
A general note: Reporter assays use an easily measured gene product as a stand-in for the process of interest.

As for `O=C(/C=C/C=C/c1ccc2c(c1)OCO2)N1CCCCC1` [Piperine, (2E,4E)-5-(Benzo[d][1,3]dioxol-5-yl)-1-(piperidin-1-yl)penta-2,4-dien-1-one], the “concentration at which treatment significantly increases KCC2 expression” value in the assay on KCC2 expression (cultured ESC-derived human RTT neurons) stood at 10 µM. Further, the KCC2 expression entry in the assay with KCC2 expression is on record as “induced KCC2 expression in a dose-dependent manner; also recorded: significant increase in KCC2 expression”; in the assay with KCC2 expression (listed as piperine), “increase KCC2 expression”. In assay [1], the “symptoms in mouse models of autism and depression” value was “improved symptoms”. Also, in the assay with Mecp2 mutant mice [2], the “frequency of breathing pauses” value was “significantly reduced the frequency of breathing pauses”. Besides, the day-time locomotion result in the assay on Mecp2 mutant mice [3] (Mecp2 mutant animals, vs EtOH control) is reported as “significantly increased day-time locomotion”. Moreover, the locomotive activities result in the assay on Mecp2 mutant mice [3] (male Mecp2 mutant mice, daily injection, two weeks, vs DMSO- or EtOH-injected control) is given as “increased locomotive activities”. Also, in assay [4], the “B Score” value was found to be 4.69.
